Target: T1, recombinant human β-amyloid (1–42) (Homo sapiens, UniProt P05067)
T1 construct: recombinant human β-amyloid (1–42; ultrapure); purchased Sigma-Aldrich (St. Louis, MO, USA)
Experiment: Beta-amyloid aggregation, Thioflavin T fluorescence
Assay type: biochemical
Conditions: 24 and 48 h; both tested concentrations
Procedure, shortened: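 Aβ42 (DMSO stock, pre-warmed 15 min at 37 °C) at 20 μmol/L final incubated with antipsychotics at TPC and 1/2 × TPC, with 5 µmol/L ThT added. Fluorescence (Ex/Em 440/484 nm, room temperature) read at 10, 30, 60, 90 min, 24 and 48 h; peptide-only control set as 100% aggregation.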

T1 sequence (P05067 672-713 limits assumed): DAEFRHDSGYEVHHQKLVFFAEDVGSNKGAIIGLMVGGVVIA

For `OCCOCCN1CCN(C2=Nc3ccccc3Sc3ccccc32)CC1` [Quetiapine, quetiapine], the “effect on Aβ aggregation after a longer incubation time” value was “substantially inhibit”.
